Reference: patent publication US7659304B2, “Tryptophan derivative and application thereof” (priority 2005, dated 2010)

How the values were obtained:
osteoblasts [1] = assay: Influence on osteoblasts: alkaline phosphatase (ALP) activity in cultured goldfish scales; format: cell-based; conditions: for ALP activity: Amount of para-nitrophenol produced (mean ± standard error): 10^−6 M, scales cultured at 25° C. for 6 hours, control 1.37 ± 0.18
Method: The influence of the tryptophan derivatives on bone cells was tested according to a method described in N. Suzuki and A. Hattori, J. Pineal Res., 33, 253-258 (2002). Required pieces of scales were ablated from female goldfish (body weight: around 30 g) under anesthesia with MS222 (ethyl 3-aminobenzoate, methane sulfonic acid salt) (Aldrich). The scales were washed twice with an Eagle's minimum essential medium (Dainippon Pharmaceutical Co., Ltd.) containing 1% antibiotic (penicillin-streptomycin mixture). The same medium was added at 1 ml/well to a 24-well plate. The scales were added at several pieces (usually eight)/well thereto. Each tryptophan derivative was added at a concentration of 10^−6 M to each well. Subsequently, these scales were cultured at 25° C. for 6 hours. A tryptophan derivative-free group (control) was also prepared to compare the effects on bone cells. In this test, two groups, one for osteoclasts and the other for osteoblasts, were used for the tryptophan derivatives and compared them with the control. To ensure the obtained results, the duplicate test was performed. Thus, in the 24-well plate, 6 tryptophan derivatives can be examined. After culture, the medium was removed. The scales were fixed by the addition of 0.05 M cacodylic acid buffer (pH 7.4) containing 10% formalin. These scales were stored in 0.05 M cacodylic acid buffer at 4° C. until enzyme activity measurement. • (1) […] The scales treated by fixation were moved and weighed. After measurement, the scales were put into a 96-well microplate. To each well, 2001 of 100 mM tris-HCl buffer (pH 9.5) containing 10 mM para-nitrophenol phosphate (substrate), 1 mM magnesium chloride, and 0.1 mM zinc chloride was added. Reaction was performed at 25° C. for 15 minutes and terminated by the addition of a 3 M sodium hydroxide aqueous solution (50 μl). Then, 150 μl of the solution after the completion of reaction was transferred to another microplate. The amount of p-NP produced by ALP was measured with a spectrophotometer (405 nm) to determine the activity.

osteoclasts [2] = assay: Influence on osteoclasts: tartrate-resistant acid phosphatase (TRAP) activity in cultured goldfish scales; format: cell-based; conditions: for TRAP activity: Amount of para-nitrophenol produced (mean ± standard error): 10^−6 M, scales cultured at 25° C. for 6 hours, control 0.700 ± 0.041
Method: The influence of the tryptophan derivatives on bone cells was tested according to a method described in N. Suzuki and A. Hattori, J. Pineal Res., 33, 253-258 (2002). Required pieces of scales were ablated from female goldfish (body weight: around 30 g) under anesthesia with MS222 (ethyl 3-aminobenzoate, methane sulfonic acid salt) (Aldrich). The scales were washed twice with an Eagle's minimum essential medium (Dainippon Pharmaceutical Co., Ltd.) containing 1% antibiotic (penicillin-streptomycin mixture). The same medium was added at 1 ml/well to a 24-well plate. The scales were added at several pieces (usually eight)/well thereto. Each tryptophan derivative was added at a concentration of 10^−6 M to each well. Subsequently, these scales were cultured at 25° C. for 6 hours. A tryptophan derivative-free group (control) was also prepared to compare the effects on bone cells. In this test, two groups, one for osteoclasts and the other for osteoblasts, were used for the tryptophan derivatives and compared them with the control. To ensure the obtained results, the duplicate test was performed. Thus, in the 24-well plate, 6 tryptophan derivatives can be examined. After culture, the medium was removed. The scales were fixed by the addition of 0.05 M cacodylic acid buffer (pH 7.4) containing 10% formalin. These scales were stored in 0.05 M cacodylic acid buffer at 4° C. until enzyme activity measurement. • (1) Influence on Osteoclasts: Tartrate-Resistant Acid Phosphatase (TRAP) Activity Measurement The scales treated by fixation were moved and weighed. After measurement, the scales were put into a 96-well microplate. To each well, 2001 of 100 mM acetate buffer (pH 5.3) containing 20 mM tartrate and 10 mM para-nitrophenol phosphate (substrate) was added. Reaction was performed at 25° C. for 20 minutes and subsequently terminated by the addition of a 3 M sodium hydroxide aqueous solution (50±1). Then, […] of the solution after the completion of reaction was transferred to another microplate. The amount of para-nitrophenol (p-NP) produced by TRAP was measured with a spectrophotometer (405 nm). The osteoclast activity was indicated as the amount of p-NP produced by the decomposition of para-nitrophenol phosphate per g of scale per minute.

[3] = tested on: bone metabolism of ovariectomized model rat; assay: Effect on bone metabolism of ovariectomized model rat (femur pQCT); format: in vivo; conditions: OVX rats, 0.17 mg/rat by gavage once a day for 6 weeks
Method: A test substance was the compound No. 4 ((S)-(+)-N-acetyl-2,4,6-tribromo-5-methoxytryptophan methyl ester), which was a white powder having a molecular weight of 527, and was stored at room temperature. Commercially available dimethyl sulfoxide (DMSO, Wako Pure Chemical Industries, Ltd.) was purchased as a solvent and stored at room temperature. • 2. Method for Preparing Test Substance
The solution of the test substance was administered in a volume of 100 μL/rat in consideration of the toxicity of the solvent. For a dose of 0.17 mg of the test substance (compound No. 4)/rat, 86.6 mg of the test substance was weighed and dissolved in 50.9 mL of the solvent (0.17 mg/0.1 mL). • 3. Animal Used and Raising Conditions
Five-week-old female SPF SD (Crl:SD) rats were obtained from Charles River Laboratories Japan, Inc. After seven-day acclimation and quarantine, 6-week-old ovariectomized models were prepared. Administration was performed from the day following model preparation.
The animals were raised in the rat/mouse room of a test laboratory set to a temperature of 24±3° C., a humidity of 50±20%, the number of ventilations of approximately 10 to 20 times/hour, a lighting time of 12 hours/day (8:00 light on, 20:00 light off), and an illuminance of 150 to 300 Lux. • 4. Administration Method
The test substance was administered once a day for 6 weeks by gavage administration to the rats without anesthesia under non-fasting by use of a feeding needle made of a metal and a syringe barrel. In this context, 1 week is defined as 7 days, and the day following ovariectomy when the administration was initiated is defined as Day 1. The amount of the solution administered was set to 0.1 mL/rat.
The bone densities of the left femurs were measured using a peripheral bone density measurement apparatus PQCT (abbreviation of peripheral Quantitative Computed Tomography, XCT-Research SA+, Stratec). For cancellous bone parameter measurement, the metaphyseal region was sliced at a distance of 3 mm from the distal growth cartilage. Alternatively, for cortical bone parameter measurement, the diaphyseal region was sliced at a distance of 13 mm therefrom. The measurement parameters were a bone density (total density and cancellous bone), an area (total area and cancellous bone), and SSI (Stress Strain Index) for the metaphyseal region and were the bone density, area, and thickness of the cortical bone, a periosteal circumference length, an endosteal circumference length, and SSI for the diaphyseal region. Software used was Rev.5.50e.

osteoclasts [4] = conditions: literature report; cited from earlier work
osteoblasts [5] = conditions: literature report; cited from earlier work

Q: What does the source list for `C#CCn1c(Br)c(C[C@H](NC(C)=O)C(=O)OC)c2c(Br)c(OC)c(Br)cc21` [Compound 7, (S)-(+)-N-acetyl-2,4,6-tribromo-5-methoxy-1-propargyltryptophan methyl ester]?
A: ALP activity: Amount of para-nitrophenol produced (mean ± standard error) (osteoblasts [1]): 2.50 ± 0.51 nmol/g of scale/min; TRAP activity: Amount of para-nitrophenol produced (mean ± standard error) (osteoclasts [2]): 0.838 ± 0.056 nmol/g of scale/min

Q: Which “ALP activity: Amount of para-nitrophenol produced (mean ± standard error)” value (“ALP activity: Amount … (mean ± standard error)” for short) (osteoblasts [1]) does the source give for `COC(=O)[C@H](Cc1c(Br)[nH]c2cc(Br)c(OC)c(Br)c12)NC(C)=O` [Compound 4, (S)-(+)-N-acetyl-2,4,6-tribromo-5-methoxytryptophan methyl ester] here?
A: 2.62 ± 0.20 nmol/g of scale/min

Q: And the “bone density of the cancellous bone (metaphyseal region) compared with OVX + Vehicle group (in words)” value [3]?
A: increased

Q: What about the “change in the diaphyseal region compared with OVX + Vehicle group (in words)” value [3] of the same compound?
A: no change

Q: And the “total bone density of the metaphyseal region compared with OVX + Vehicle group (in words)” value [3]?
A: increased

Q: And the “Diaphyseal region SSI Polar” value ([3]; left femur, OVX + Vehicle 6.753 ± 0.380)?
A: 6.877 ± 0.605

Q: What about the “Diaphyseal region Endosteal circumference length” value ([3]; left femur, OVX + Vehicle 8.360 ± 0.467) of the same compound?
A: 8.260 ± 0.666 mm

Q: What about the “Metaphyseal region Area Cancellous bone” value ([3]; left femur, OVX + Vehicle 9.47 ± 1.52) of the same compound?
A: 7.44 ± 0.47 mm^2

Q: What about the “Metaphyseal region SSI Polar” value ([3]; left femur, OVX + Vehicle 9.801 ± 0.574) of the same compound?
A: 11.474 ± 0.346

Q: What about the “Diaphyseal region Periosteal circumference length” value ([3]; left femur, OVX + Vehicle 11.819 ± 0.333) of the same compound?
A: 11.729 ± 0.455 mm

Q: What about the “Metaphyseal region Area Total area” value ([3]; left femur, OVX + Vehicle 21.69 ± 1.61) of the same compound?
A: 23.67 ± 1.34 mm^2

Q: And the “Metaphyseal region Bone density Cancellous bone” value ([3]; left femur, OVX + Vehicle 192.9 ± 24.6)?
A: 253.4 ± 2.9 mg/mL

Q: And the “Metaphyseal region Bone density Total density” value ([3]; left femur, OVX + Vehicle 473.1 ± 29.3)?
A: 520.4 ± 31.7 mg/mL

Q: What about the “Diaphyseal region Thickness” value ([3]; cortical bone, left femur, OVX + Vehicle 0.551 ± 0.021) of the same compound?
A: 0.552 ± 0.038 mm

Q: What about the “Diaphyseal region Area” value ([3]; cortical bone, left femur, OVX + Vehicle 5.55 ± 0.02) of the same compound?
A: 5.50 ± 0.17 mm^2

Q: And the “Diaphyseal region Bone density” value ([3]; cortical bone, left femur, OVX + Vehicle 1265.7 ± 15.9)?
A: 1254.9 ± 14.6 mg/mL

Q: And the “TRAP activity: Amount of para-nitrophenol produced (mean ± standard error)” value (“TRAP activity: Amount … (mean ± standard error)” for short) (osteoclasts [2])?
A: 0.699 ± 0.064 nmol/g of scale/min

Q: And the melting point?
A: 198 to 199 °C

Q: Which melting point does the source give for `COC(=O)[C@H](Cc1c(Br)[nH]c2cc(Br)c(OC)cc12)NC(C)=O` [Compound 2, (S)-(+)-N-acetyl-2,6-dibromo-5-methoxytryptophan methyl ester] here?
A: 174 to 175 °C

Q: Which melting point does the source give for `COC(=O)[C@H](Cc1c(Br)[nH]c2c(Br)cc(OC)c(Br)c12)NC(C)=O` [Compound 3, (S)-(+)-N-acetyl-2,4,7-tribromo-5-methoxytryptophan methyl ester] here?
A: 218 to 220 °C

Q: What does the source list for `C=CCn1c(Br)c(C[C@H](NC(C)=O)C(=O)OC)c2c(Br)c(OC)c(Br)cc21` [Compound 6, (S)-(+)-N-acetyl-1-allyl-2,4,6-tribromo-5-methoxytryptophan methyl ester]?
A: ALP activity: Amount of para-nitrophenol produced (mean ± standard error) (osteoblasts [1]): 2.39 ± 0.40 nmol/g of scale/min; TRAP activity: Amount of para-nitrophenol produced (mean ± standard error) (osteoclasts [2]): 0.882 ± 0.106 nmol/g of scale/min

Q: Which “ALP activity: Amount … (mean ± standard error)” value (osteoblasts [1]) does the source give for `COC(=O)[C@H](Cc1c(Br)n(C(=O)OC(C)(C)C)c2cc(Br)c(OC)c(Br)c12)NC(C)=O` [Compound 5, (S)-(+)-N-acetyl-2,4,6-tribromo-1-t-butoxycarbonyl-5-methoxytryptophan methyl ester] here?
A: 2.48 ± 0.42 nmol/g of scale/min

Q: And the “TRAP activity: Amount … (mean ± standard error)” value (osteoclasts [2])?
A: 0.747 ± 0.063 nmol/g of scale/min

Q: Which results are given for `COc1ccc2[nH]cc(CCNC(C)=O)c2c1` [Melatonin, N-acetyl-5-methoxytryptamine, reference compound]?
A: action on osteoclasts (in words), reported in Non-Patent Document 1 (osteoclasts [4]): inhibitory; action on osteoblasts (in words), reported in Non-Patent Document 1 (osteoblasts [5]): inhibitory; ALP activity: Amount of para-nitrophenol produced (mean ± standard error) (osteoblasts [1]): 1.06 ± 0.17 nmol/g of scale/min; action on osteoblasts (in words) (osteoblasts [1]; conclusion from Table 2): inhibitory; TRAP activity: Amount of para-nitrophenol produced (mean ± standard error) (osteoclasts [2]): 0.467 ± 0.052 nmol/g of scale/min; action on osteoclasts (in words) (osteoclasts [2]; conclusion from Table 1): inhibitory

Q: With `COC(=O)[C@H](Cc1c(Br)n(Cc2ccccc2)c2cc(Br)c(OC)c(Br)c12)NC(C)=O` [Compound 8, (S)-(+)-N-acetyl-1-benzyl-2,4,6-tribromo-5-methoxytryptophan methyl ester] as the compound, how does the “ALP activity: Amount … (mean ± standard error)” value (osteoblasts [1]) read?
A: 1.17 ± 0.32 nmol/g of scale/min

Q: And the “TRAP activity: Amount … (mean ± standard error)” value (osteoclasts [2])?
A: 0.829 ± 0.047 nmol/g of scale/min
